Common to all, as to type: cell-based
Assay [1] addresses T1, 17β-hydroxysteroid dehydrogenase type 1 (Homo sapiens, UniProt P14061).
T1 construct: expressed in transfected cells; host or cells: MCF-7
T1 sequence (P14061 1-328): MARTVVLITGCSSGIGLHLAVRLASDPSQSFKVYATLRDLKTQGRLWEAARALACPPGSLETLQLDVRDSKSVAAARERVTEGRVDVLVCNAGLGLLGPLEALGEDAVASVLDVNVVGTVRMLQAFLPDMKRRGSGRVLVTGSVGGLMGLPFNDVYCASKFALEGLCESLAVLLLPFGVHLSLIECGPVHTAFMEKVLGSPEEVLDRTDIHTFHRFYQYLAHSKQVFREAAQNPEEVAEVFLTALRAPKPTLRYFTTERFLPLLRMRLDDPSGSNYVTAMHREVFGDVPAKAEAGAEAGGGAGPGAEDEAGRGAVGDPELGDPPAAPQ
Kind of assay: Inhibition of 17β-HSD type 1 in MCF-7 cells stably expressing the isoenzyme (HPLC, tritium labeled estrone). As to conditions: 2 nM estrone; for inhibition at 1 µM: MCF7, 1 μM compound; for inhibition at 1 µM / inhibition at 10 µM: read-out: % Inhibition of the 17β-HSD enzyme type 1 (HSD1); for inhibition at 10 µM: MCF7, 10 μM compound. The text has this: (§1) Biological Testing Materials and Methods 1. Inhibition of the 17β-hydroxysteroid dehydrogenase type 1, type 2 and type 3 enzyme
(§2) The compounds were screened in respect of 17β-HSD enzyme activity in vitro on established M CF-7 cell lines, each stably expressing one of the respective 17β-HSD isoenzymes. The interconversion of substrate by each isoenzyme and the 17β-HSD inhibiting activity of chemical compounds in these cell lines were detected by HPLC system.
(§3) Varying amounts of the test compounds were incubated in the growth medium of the 17β-HSD expressing cells together tritium labeled substrate (2 nM estrone for 17β-HSD type 1; 2 nM estradiol for 17β-HSD type 2; and 2 nM androstenedione for 17β-HSD type 3). The medium samples were removed after exact incubation time and the reaction is stopped by trichloroacetic acid (TCA). The samples were analyzed by HPLC-coupled flow scintillation analysis.
(§4) For each enzyme type, the HSD-inhibiting activity of an individual test compound was calculated by comparing the conversion of a control sample without any test compound (referred to as “Negative Control”) to the (reduced) conversion of the test sample containing the particular compound to be tested (referred to as “Test Sample”).
(§5) Two concentrations of each compound were used. The number of the compound refers to the numbers indicated in the Experimental Section.

The target in assay [2] is T2, 17β-hydroxysteroid dehydrogenase type 3 (Homo sapiens, UniProt P37058).
T2 construct: expressed in transfected cells; host or cells: MCF-7
T2 sequence (P37058 1-310): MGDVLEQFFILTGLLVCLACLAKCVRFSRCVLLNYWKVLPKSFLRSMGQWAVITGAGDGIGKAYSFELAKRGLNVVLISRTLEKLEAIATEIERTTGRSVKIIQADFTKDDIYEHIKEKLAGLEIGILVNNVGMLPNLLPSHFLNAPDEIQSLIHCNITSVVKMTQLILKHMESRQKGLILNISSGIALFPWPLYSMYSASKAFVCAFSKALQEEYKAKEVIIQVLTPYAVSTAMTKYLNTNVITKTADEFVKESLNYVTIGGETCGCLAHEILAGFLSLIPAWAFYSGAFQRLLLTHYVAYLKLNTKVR
The assay is described as follows: Inhibition of 17β-HSD type 3 in MCF-7 cells stably expressing the isoenzyme (HPLC, tritium labeled androstenedione). As to conditions: 2 nM androstenedione; for inhibition at 10 µM: MCF7, 10 μM compound; for inhibition at 10 µM / inhibition at 1 µM: read-out: % Inhibition of the 17β-HSD enzyme type 3 (HSD3); for inhibition at 1 µM: MCF7, 1 μM compound.
Description: as §1, §2, §3, §4, §5

Assay [3] concerns the target T3, 17β-hydroxysteroid dehydrogenase type 2 (Homo sapiens, UniProt P37059).
T3 construct: expressed in transfected cells; host or cells: MCF-7
T3 sequence (P37059 1-387): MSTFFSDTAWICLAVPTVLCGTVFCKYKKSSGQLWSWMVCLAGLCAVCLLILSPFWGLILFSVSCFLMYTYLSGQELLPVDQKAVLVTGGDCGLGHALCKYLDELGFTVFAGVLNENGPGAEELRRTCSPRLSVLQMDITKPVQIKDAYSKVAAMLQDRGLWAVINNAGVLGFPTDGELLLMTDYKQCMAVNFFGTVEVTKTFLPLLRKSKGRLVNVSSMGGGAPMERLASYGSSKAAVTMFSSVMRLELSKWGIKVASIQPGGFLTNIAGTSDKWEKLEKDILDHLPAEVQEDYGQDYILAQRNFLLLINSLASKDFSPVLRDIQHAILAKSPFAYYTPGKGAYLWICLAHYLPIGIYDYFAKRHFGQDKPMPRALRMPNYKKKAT
Kind of assay: Inhibition of 17β-HSD type 2 in MCF-7 cells stably expressing the isoenzyme (HPLC, tritium labeled estradiol). As to conditions: 2 nM estradiol, read-out: % Inhibition of the 17β-HSD enzyme type 2 (HSD2); for inhibition at 1 µM: MCF7, 1 μM compound; for inhibition at 10 µM: MCF7, 10 μM compound.
Description: as §1, §2, §3, §4, §5

Where “and” joins values, the source holds several entries; their conditions need not be identical. Identical values can stand only once.

The term inhibition denotes the change of the read-out against control, counted positive when it falls. With `O=CC1=C(Cl)c2sc3nc4n(c(=O)c3c2CC1)CCCCCC4` [Compound 4b, 4-Chloro-1,2,3,7,8,9, 10,11,12-octahydro[1]benzothieno[2′,3′:4,5]pyrimido-[1,2-a]-azocin-14-one-4-carboxyaldehyde], the “% Inhibition of the 17β-HSD enzyme type 1 (HSD1)” value worked out at 31.2% in assay [1] (1 μM compound) and 80.1% in assay [1] (10 μM compound). Besides, the inhibition at 1 µM in assay [1] is 36.9%; in assay [3], 3.5%. For the same compound, the inhibition at 10 µM in assay [1] came out at 82.1%; in assay [2] it was 42.1%; in assay [3] it was 1.5%. Besides, the “% Inhibition of the 17β-HSD enzyme type 3 (HSD3)” value in assay [2] (1 μM compound) is 5.3% and 14.3%; in assay [2] (10 μM compound) it was 43.9%.
In the case of `Cn1cnc2sc3c(c2c1=O)CCC(C=O)=C3Cl` [Compound 4e, 8-Chloro-5,6-dihydro-3-methyl[1]benzothieno[2,3-d]pyrimidin-4(3H)-one-7-carboxyaldehyde], the “% Inhibition of the 17β-HSD enzyme type 1 (HSD1)” value in assay [1] (1 μM compound) amounted to 24.6%; in assay [1] (10 μM compound), 52.1%. For the same compound, the inhibition at 1 µM in assay [1] amounted to 23.5%; in assay [2], 9.8%; in assay [3], 9.6%. Moreover, the inhibition at 10 µM amounted to 44.4% in assay [1], 14.2% in assay [2] and 28.3% in assay [3]. In addition, the figures for the “% Inhibition of the 17β-HSD enzyme type 3 (HSD3)” value in assay [2] (1 μM compound) and in assay [2] (10 μM compound) were 11.1% and 17.3%, respectively.
`CCSC1=C(C=O)CCc2c1sc1nc3n(c(=O)c21)CCCCC3` [Compound 5b, 1,2,7,8,9,10,11,13-Octahydro-13-oxo-4-(ethylthio)[1]benzothieno[2′,3′:4,5]-pyrimido-[1,2-a]azepine-3-carboxaldehyde]: the values for the inhibition at 1 µM in assay [1], in assay [2] and in assay [3] were 66.1%, 43.4% and 19.7%, respectively. In addition, the inhibition at 10 µM in assay [1] was found to be 100%; in assay [2], 100%; in assay [3] it was 25.2%.
In the case of `CCCSC1=C(C=O)CCc2c1sc1nc3n(c(=O)c21)CCCCC3` [Compound 5c, 1,2,7,8,9,10,11,13-Octahydro-13-oxo-4-(propylthio)[1]benzothieno[2′,3′:4,5]-pyrimido-[1,2-a]azepine-3-carboxaldehyde], the inhibition at 1 µM was determined as 74% in assay [1], 10.5% in assay [2] and 8.9% in assay [3]. Moreover, the inhibition at 10 µM in assay [1] stood at 100%; in assay [2], 100%; in assay [3] it was 18.6%.
`CCCCSC1=C(C=O)CCc2c1sc1nc3n(c(=O)c21)CCCCC3` [Compound 5d, 1,2,7,8,9,10,11,13-Octahydro-13-oxo-4-(butylthio)[1]benzothieno[2′,3′:4,5]-pyrimido-[1,2-a]azepine-3-carboxaldehyde]: the results for the inhibition at 1 µM in assay [1], in assay [2] and in assay [3] were 54.1%, 32.6% and 8.2%, respectively. Moreover, the figures for the inhibition at 10 µM in assay [1], in assay [2] and in assay [3] were 100%, 72% and 15.1%, respectively.
Turning to `CC(C)SC1=C(C=O)CCc2c1sc1nc3n(c(=O)c21)CCCCC3` [Compound 5e, 1,2,7,8,9,10,11,13-Octahydro-13-oxo-4-(isopropylthio)[1]benzothieno[2′,3′:4,5]-pyrimido-[1,2-a]azepine-3-carboxaldehyde], the figures for the inhibition at 1 µM in assay [1], in assay [2] and in assay [3] were 71.9%, 50.8% and 8.4%, respectively. Besides, the inhibition at 10 µM is 100% in assay [1], 86.3% in assay [2] and 20.2% in assay [3].
On to `CCCSC1=C(C=O)CCc2c1sc1nc3n(c(=O)c21)CCCCCC3` [Compound 5i, 1,2,7,9,10,11,12,14-octahydro-14-oxo-4-(propylthio)-8H-[1]benzothieno[2′,3′:4,5]pyrimido-[1,2-a]-azocine-3-carbaldehyde], for which the inhibition at 1 µM was determined as 43.9% in assay [1], 22.5% in assay [2] and 11.6% in assay [3]. Also, the inhibition at 10 µM came out at 100% in assay [1], 80.5% in assay [2] and 17.3% in assay [3].
As to `O=c1c2c3c(sc2nc2n1CCCCC2)C(Sc1ccccc1)=C(CO)CC3` [Compound 6a, 1,2,7,8,9,10,11,13-Octahydro-13-oxo-4-(phenylthio)[1]benzothieno[2′,3′:4,5]-pyrimido-[1,2-a]azepine-3-hydroxymethyl], the inhibition at 1 µM in assay [1] is 51.8%; in assay [2] it was 45.9%; in assay [3], 11.6%. The inhibition at 10 µM was 100% in assay [1], 48.9% in assay [2] and 42.5% in assay [3].
In the case of `CCCSC1=C(CO)CCc2c1sc1nc3n(c(=O)c21)CCCCC3` [Compound 6c, 1,2,8,9,10,11-Hexahydro-3-(hydroxymethyl)-4-(propylthio)-[1]benzothieno[2′,3′:4,5]-pyrimido-[1,2-a]azepine-13(7H)-one], the inhibition at 1 µM in assay [1] is 47.7%; in assay [2], 20.4%; in assay [3], 37.5%. The inhibition at 10 µM in assay [1] is 82.4%; in assay [2], 38.1%; in assay [3], 36.7%.
As to `O=CC1=C(Cl)c2sc3nc4n(c(=O)c3c2CC1)CCCCCC4C=O` (stereo not shown) [Compound 11, 4-Chloro-1,2,7,9, 10,11,12,14-octahydro-14-oxo-8H-[1]benzothieno[2′,3′:4,5]pyrimido-[1,2-a]-azocine-3,7-dicarbaldehyde], the inhibition at 1 µM in assay [1] was determined as 4.7%; in assay [2], 7.3%; in assay [3] it was 16.7%. Further, the inhibition at 10 µM in assay [1] stood at 51.1%; in assay [2], 31.7%; in assay [3], 28.3%.
On to `O=Cc1ccc2c(sc3nc4n(c(=O)c32)CCCCC4)c1Sc1ccccc1` [Compound 12, 7,8,9,10,11,13-Hexahydro-13-oxo-4-(phenylthio)-[1]benzothieno[2′,3′:4,5]pyrimido[1,2-a]azepine-3-carbaldehyde], for which the results for the inhibition at 1 µM in assay [1], in assay [2] and in assay [3] were 15.1%, 8.6% and 7%, respectively. Besides, the inhibition at 10 µM in assay [1] came out at 87.9%; in assay [2] it was 25.5%; in assay [3], 8.9%.
For the compound `O=c1c2c3c(sc2nc2n1CCCCCC2)C(O)CCC3` (stereo not shown) [Compound 13, 1,2,3,4,7,8,9,10,11,12-Decahydro-4-hydroxy-14H-[1]benzothieno[2′,3′:4,5]pyrimido[1,2-a]azocin-14-one], the inhibition at 1 µM is 5% in assay [1], -2.2% in assay [2] and 1.7% in assay [3]. Also, the inhibition at 10 µM came to 20% in assay [1], 11.7% in assay [2] and 18.6% in assay [3].

For the origin of these results see patent publication US7754709B2 (Solvay Pharmaceuticals BV, priority 2003, dated 2010).
